For one experiment, the target named is T1, thrombin (Homo sapiens, UniProt P00734).
T1 construct: purchased Roche, Basle (Thrombin Reagent)
Kind of experiment: biochemical. The class given is biochemical.

The subject of a further experiment is rat smooth muscle cells. In words: Antiproliferative activity (growth inhibition of rat smooth muscle cells, relative to heparin). In kind it is cell-based. Conditions: 100 μg/ml, 48 hours, relative to heparin 100 μg/ml in same experiment.
Another experiment addresses T2, Factor Xa (Bos taurus, UniProt P00743).
T2 sequence (P00743 41-180 limits assumed): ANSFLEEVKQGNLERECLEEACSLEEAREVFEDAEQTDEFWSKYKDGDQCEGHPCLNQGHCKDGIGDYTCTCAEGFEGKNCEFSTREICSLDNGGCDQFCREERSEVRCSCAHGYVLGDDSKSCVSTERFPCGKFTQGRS
Kind of experiment: Inhibition of Factor Xa in the chromogenic substrate assay (blood coagulation inhibition). The class given is biochemical.

Where [1] appears, read: chromogenic substrate S-2222, antithrombin III, plasma; read-out: Anticoagulative Activity IC50 Factor Xa.
Setting [2] is: chromogenic substrate S-2238, antithrombin III, plasma, pH 8.4, 37° C.; read-out: Anticoagulative Activity IC50 Thrombin.
Setting [3] is: read-out: Anticoagulative Activity IC50 Thrombin; chromogenic substrate S-2238, antithrombin III, plasma, pH 8.4, 37° C.
Setting [4] is: read-out: Anticoagulative Activity IC50 Factor Xa; chromogenic substrate S-2222, antithrombin III, plasma.

Counter-ions that a name gives are not always drawn. Like-named read-outs stand apart in the source and are kept apart here. Bounds are passed on as bounds.

Description for Factor Xa: (§1) The blood coagulation-inhibiting activity was determined as follows:
Inhibition of Thrombin or Factor Xa in the Chromogenic Substrate Assay (Teien. et al., Thrombosis Research 10, 399-410 (1977)): The determination was effected in a Cobas-Bio centrifugal automatic spectrophotometer. The buffer solution used consisted of 50 mM Tris buffer, 180 mM NaCl, 7.5 mM EDTA Na2, 1% PEG 6000 and 0.02% Tween 80, pH 8.4. The test solution consisted of 50 μl of buffer, 30 μl of antithrombin III (1 U/ml, Kabi Diagnostica) and 20 μl of plasma which contained various concentrations of test compounds.
The inhibition of Factor Xa was measured in the same manner using a solution of Factor Xa (2.8 nkat/ml) and 2 mM S-2222 (Bz-CO-Ile-Glu-Arg-NH.pNA, Kabi Diagnostica) in water in place of thrombin or S-2238.
Description for rat smooth muscle cells: The antiproliferative activity of a substance is expressed as the ri value which is a comparative value to the corresponding activity of heparin and which was determined in cell cultures as follows: rat smooth muscle cells were applied to cell culture plates in a density of 8×10^3 cells/well (medium: DMEM with 10% FCS. Cultivation at 37° C. and 5% CO2). After 4 hours the number of adhered cells was determined and the compounds to be tested (100 μg/ml, dissolved in H2 O) were added. The controls were a) cells to which test compound was not added and b) heparin (100 μg/ml). Subsequently, the cells were incubated for 48 hours and thereafter the cell count was determined once more.
The inhibition i of the cell growth, i.e. the percent reduction in the growth rate of the cells compared to the control, was calculated from these values: [formula] the growth rate μ being calculated as [formula] in which Z is the number of cells.
Finally, ri --the relative inhibitory activity--which expresses the activity of a substance (at 100 μg/ml) in comparison to the activity of heparin in the same concentration in the same experiment, was calculated: [formula]
Description for thrombin: as §1
Inhibition of Thrombin or Factor Xa in the Chromogenic Substrate Assay (Teien. et al., Thrombosis Research 10, 399-410 (1977)): The determination was effected in a Cobas-Bio centrifugal automatic spectrophotometer. The buffer solution used consisted of 50 mM Tris buffer, 180 mM NaCl, 7.5 mM EDTA Na2, 1% PEG 6000 and 0.02% Tween 80, pH 8.4. The test solution consisted of 50 μl of buffer, 30 μl of antithrombin III (1 U/ml, Kabi Diagnostica) and 20 μl of plasma which contained various concentrations of test compounds. 30 μl of sample solution and 20 μl of water with 180 μl of thrombin (1 U/ml, Thrombin Reagent Roche Basle) were added to the test cuvette in the automatic analyzer. After incubation at 37° C. for 240 seconds, 60 μl of S-2238 (H-D-Phe-Pip-Arg-NH.pNA, Kabi Diagnostica, Mondal, Sweden, 0.75 mM in water) and 20 μl of water were added. The liberation of pNA (p-nitroaniline) was followed during 60 seconds at 405 nm in 10 second intervals in comparison to water as the blank.

For `O=C(/C=C/C(=O)Nc1ccc(NC(=O)NC[C@H](OS(=O)(=O)O)[C@@H](OS(=O)(=O)O)[C@H](OS(=O)(=O)O)[C@@H](COS(=O)(=O)O)OS(=O)(=O)O)cc1)Nc1ccc(NC(=O)NC[C@H](OS(=O)(=O)O)[C@@H](OS(=O)(=O)O)[C@H](OS(=O)(=O)O)[C@@H](COS(=O)(=O)O)OS(=O)(=O)O)cc1` [Example 34, N,N'-bis-[4-[3-(2,3,4,5,6-penta-O-sulfo-D-glucit-1-yl)-ureido]-phenyl]-fumaramide decasodium salt], the IC50 at thrombin (pH 8.4; read-out: Anticoagulative Activity IC50 Thrombin) and on Factor Xa (setting [1]) was > 662 µM each time. The “Antiproliferative Activity ri (relative inhibitory activity compared with heparin)” value in the experiment on rat smooth muscle cells is listed as 0.4.
For the molecule `CN(C[C@H](OS(=O)(=O)O)[C@@H](OS(=O)(=O)O)[C@H](OS(=O)(=O)O)[C@@H](COS(=O)(=O)O)OS(=O)(=O)O)C(=O)c1ccc2c(c1)C(=O)c1cc(C(=O)N(C)C[C@H](OS(=O)(=O)O)[C@@H](OS(=O)(=O)O)[C@H](OS(=O)(=O)O)[C@@H](COS(=O)(=O)O)OS(=O)(=O)O)ccc1-2` [Example 37, 9-oxo-9H-fluorene-2,7-dicarboxylic acid bis-[methyl-(2,3,4,5,6-penta-O-sulfo-D-glucit-1yl)-amide] decasodium salt], the IC50 on thrombin (setting [2]) and at Factor Xa (setting [1]) was > 703 µM each time. Also, the “Antiproliferative Activity ri (relative inhibitory activity compared with heparin)” value in the experiment with rat smooth muscle cells amounted to 0.7.
Turning to `O=C(/C=C\C(=O)Nc1cc(COc2ccc(-c3ccccc3)cc2)cc(NC(=O)/C=C\C(=O)NC[C@H](OS(=O)(=O)O)[C@@H](OS(=O)(=O)O)[C@H](OS(=O)(=O)O)[C@@H](COS(=O)(=O)O)OS(=O)(=O)O)c1)NC[C@H](OS(=O)(=O)O)[C@@H](OS(=O)(=O)O)[C@H](OS(=O)(=O)O)[C@@H](COS(=O)(=O)O)OS(=O)(=O)O` [Example 58, (Z)-butenedioic acid (Z)-[3-biphenyl-4-yloxymethyl-5-[3-(2,3,4,5,6-penta-O-sulfo-D-glucit-1-ylcarbamoyl)-acryloylamino]-phenylamide]-(2,3,4,5,6-penta-O-sulfo-D-glucit-1-yl)-amide decasodium salt], the IC50 on thrombin (setting [2]) and on Factor Xa (setting [1]) was > 620 µM throughout. Further, the “Antiproliferative Activity ri (relative inhibitory activity compared with heparin)” value in the experiment with rat smooth muscle cells is recorded as 2.2.
With `O=C(Nc1ccc(OC[C@@H](OS(=O)(=O)O)[C@H](OS(=O)(=O)O)[C@H](OS(=O)(=O)O)[C@H](COS(=O)(=O)O)OS(=O)(=O)O)cc1)Nc1ccc(OC[C@@H](OS(=O)(=O)O)[C@H](OS(=O)(=O)O)[C@H](OS(=O)(=O)O)[C@H](COS(=O)(=O)O)OS(=O)(=O)O)cc1` [Example 65, 1,3-bis-[4-(2,3,4,5,6-penta-O-sulfo-D-galactit-6-yloxy)-phenyl]-urea decasodium salt], the IC50 at thrombin (setting [2]) and at Factor Xa (setting [1]) was > 728 µM throughout. Further, the “Antiproliferative Activity ri (relative inhibitory activity compared with heparin)” value with rat smooth muscle cells is 0.8.
Regarding `O=[N+]([O-])c1cc(S(=O)(=O)c2ccc(NC[C@H](OS(=O)(=O)O)[C@@H](OS(=O)(=O)O)[C@H](OS(=O)(=O)O)[C@@H](COS(=O)(=O)O)OS(=O)(=O)O)c([N+](=O)[O-])c2)ccc1NC[C@H](OS(=O)(=O)O)[C@@H](OS(=O)(=O)O)[C@H](OS(=O)(=O)O)[C@@H](COS(=O)(=O)O)OS(=O)(=O)O` [Example 67, N,N'-bis-(2,3,4,5,6-penta-O-sulfo-D-glucit-1-yl)-2,2'-dinitro-4,4'-sulfonyldianiline decasodium salt], the IC50 at thrombin (setting [3]) and on Factor Xa (setting [4]) was > 682 µM in each case. Besides, the “Antiproliferative Activity ri (relative inhibitory activity compared with heparin)” value in the experiment with rat smooth muscle cells is 1.0.
For `O=C(Nc1ccc(Cc2ccc(NC(=O)c3ccc(NC[C@H](OS(=O)(=O)O)[C@@H](OS(=O)(=O)O)[C@H](OS(=O)(=O)O)[C@@H](COS(=O)(=O)O)OS(=O)(=O)O)c([N+](=O)[O-])c3)cc2)cc1)c1ccc(NC[C@H](OS(=O)(=O)O)[C@@H](OS(=O)(=O)O)[C@H](OS(=O)(=O)O)[C@@H](COS(=O)(=O)O)OS(=O)(=O)O)c([N+](=O)[O-])c1` [Example 68, 4,4'-bis-(2,3,4,5,6-penta-O-sulfo-D-glucit-1-ylamino)-3,3'-dinitro-N,N'-(4,4'-methylene-diphenyl)-dibenzamide decasodium salt], the IC50 at thrombin (setting [3]) and at Factor Xa (setting [4]) was > 604 µM throughout. The “Antiproliferative Activity ri (relative inhibitory activity compared with heparin)” value in the experiment with rat smooth muscle cells was determined as 1.1.
Regarding `O=C(NC[C@H](OS(=O)(=O)O)[C@@H](OS(=O)(=O)O)[C@H](OS(=O)(=O)O)[C@@H](COS(=O)(=O)O)OS(=O)(=O)O)c1ccc(/C=C/c2ccc(C(=O)NC[C@H](OS(=O)(=O)O)[C@@H](OS(=O)(=O)O)[C@H](OS(=O)(=O)O)[C@@H](COS(=O)(=O)O)OS(=O)(=O)O)cc2Cl)cc1` [Example 85, (E)-2-chlorostilbene-4,4'-dicarboxylic acid bis-(2,3,4,5,6-penta-O-sulfo-D-glucit-1-ylamide) decasodium salt], the IC50 on thrombin (setting [2]) and on Factor Xa (setting [1]) was > 699 µM throughout. For the same molecule, the “Antiproliferative Activity ri (relative inhibitory activity compared with heparin)” value in the experiment with rat smooth muscle cells turned out to be 2.1.
As to `C[C@H](OS(=O)(=O)O)[C@H](OS(=O)(=O)O)[C@@H](OS(=O)(=O)O)[C@H](CNC(=O)c1ccc(/C=C\c2ccc(C(=O)NC[C@H](OS(=O)(=O)O)[C@H](OS(=O)(=O)O)[C@@H](OS(=O)(=O)O)[C@H](C)OS(=O)(=O)O)cc2)cc1)OS(=O)(=O)O` [Example 93, (Z)-stilbene-4,4'-dicarboxylic acid bis-(2,3,4,5,6-penta-O-sulfo-L-rhamnit-1-ylamide) octasodium salt], the IC50 at thrombin (setting [2]) and at Factor Xa (setting [1]) was > 831 µM each time. For the same molecule, the “Antiproliferative Activity ri (relative inhibitory activity compared with heparin)” value in the experiment with rat smooth muscle cells came out at 1.0.
On to heparin [reference compound], for which, on thrombin (chromogenic substrate S-2238, antithrombin III, plasma, pH 8.4, 37° C.), the “Anticoagulative Activity IC50 Thrombin” value was 1.9 µg/mL. In addition, the “Antiproliferative Activity ri (relative inhibitory activity compared with heparin)” value in the experiment on rat smooth muscle cells is listed as 1.0. The “Anticoagulative Activity IC50 Factor Xa” value at Factor Xa (chromogenic substrate S-2222, antithrombin III, plasma) amounted to 2.7 µg/mL.

Source of the values: patent US5521160A, “Sulfuric acid esters of sugar alcohols” (Hoffmann-La Roche Inc., priority 1994, dated 1996).
